This note sets out measurements from US10864201B2, “Heteroaromatic compounds as Vanin inhibitors” (Boehringer Ingelheim International GmbH, priority 2018, dated 2020).

pIC50: −log10 of the molar value.

The test system of one test is Pantetheinase (vanin). The experiment in a line: Human Whole Blood assay. Type of test: cell-based. As to conditions: formation of pantothenic acid after pantethine supplementation, RapidFire MS, read-out: HWB IC50. Here is the method:
Human Whole Blood assay: Pantetheinase (vanin) converts panteheine into pantothenic acid and cysteamine. Accordingly, in the described protocol vanin activity is quantified by formation of pantothenic acid after pantetheine supplementation via pantethine. The assay is applicable to identify vanin inhibitors. Compound stocks were dissolved in DMSO at 10 mM. Further dilutions were performed in RPMI 1640 medium (Gibco, #A-10491-01) and final concentrations in the assay were 0.032 nM-500 nM.
Human blood was drawn into a blood bag (1% heparin, 50 I.E./mL). Blood was aliquoted into cavities of 96-deep-well plates at 290 μL and mixed with 10 μL compound solution or vehicle (30 sec at 1400 rpm on a shaker). Equilibration followed at room temperature, 250 rpm and for 30 min. The assay was started by adding 10 μL of substrate solution (20 μM pantethine in 1 mM DTT, 0.0025% Brij-35, 50 mM HEPES, pH7.5) to each well, except for some blank wells which received […] substrate buffer (1 mM DTT, 0.0025% Brij-35, 50 mM HEPES, pH7.5) only. Samples were thoroughly shaken (30 sec, 1400 rpm) and reaction was allowed to take place at room temperature, 250 rpm and for 5 min. The reaction was stopped by addition of a vanin tool inhibitor in excess (BI-1 total conc. 10 μM). Centrifugation of the plate followed at 4° C., 665 G for 10 min. Then the blood plasma samples (100 μL) were transferred into another 96-deep-well plate and proteins were precipitated (5 min on ice) by adding 100 μL of ice cold precipitation solution (1 μM labelled pantothenic acid (di-β-alanine-13C6,15N2 calcium salt, Sigma, #705837) in acetonitrile). Afterwards the plate was centrifuged (4° C., 3220 G, 10 min) and supernatants (50 μL) were collected into another 96-deep-well plate and mixed (10 sec, 1400 rpm) with 150 μL ice cold formic acid (0.1%, Carl Roth GmbH+Co.KG, #CP03.1). The formation of pantothenic acid is detected by RapidFire Mass Spectrometry. A TripleQuad 6500+ (ABSciex, Germany) was equipped with an LC-1290 system, a RapidFire autosampler (Agilent, Germany) and a C18 cartridge Type C 12 μL (Agilent Cat #G9526-80000). Mobile phase A was consisting of 0.09% formic acid and 0.01% trifluoroacetic acid in water and mobile phase B of 0.09% formic acid and 0.01% trifluoroacetic acid in acetonitrile/methanol/water=47.5/47.5/5.

For test [1], the target named is FLAG-tagged Vanin-1 (AA 22-493, T26I) (Homo sapiens (Human), UniProt O95497, T26I). The experiment in a line: Vanin-1 enzymatic assay. The settings on record: formation of pantothenic acid from D-pantethine (3 μM), RapidFire MS; geometric mean in case of multiple measurements; read-out: VNN 1 IC50. Type of test: biochemical. Here is the method: The test compounds are dissolved in 100% DMSO at a concentration of 10 mM and in a first step diluted in DMSO to a concentration of 5 mM, followed by serial dilution steps in 100% DMSO. Dilution factor and number of dilution steps may vary according to needs. Typically 8 different concentrations by 1:5 dilutions are prepared, a further intermediate dilutions of the substances is carried out with assay buffer resulting in 1% final DMSO concentration in the assay.
0.1 nM of FLAG-tagged Vanin-1 (AA 22-493, T26I, produced internally) and test compounds are incubated at room temperature for 20 minutes in assay buffer (1 mM DTT, 0.0025% Brij-35, 50 mM HEPES, pH7.5). D-Pantethine (Sigma, Cat #P2125-5G) in assay buffer is added (final concentration 3 μM) and incubated for additional 30 minutes at room temperature. Total assay volume typically is 40 μl but might be adjusted according to needs. Reaction is stopped by adding equal volume of stop solution as the reaction mixture to reach 100 nM HD-pantothenic acid (as an internal standard) and 1% TFA. Assay plates are centrifuged for 2 minutes and the formation of pantothenic acid is detected by RapidFire Mass Spectrometry (mobile phase A: 0.1% formic acid and 0.01% trifluoroacetic acid in water; mobile phase B: 47.5% acetonitrile, 47.5% methanol, 0.1% formic acid and 0.01% trifluoroacetic acid in water) using a C18, 12 μL cartridge (Agilent Cat #G9205A).
The values given in Table I result from measurements of one or more samples. In case of multiple measurements the geometric mean values are given.

Sequence of FLAG-tagged Vanin-1 (AA 22-493, T26I) (O95497 22-493 T26I): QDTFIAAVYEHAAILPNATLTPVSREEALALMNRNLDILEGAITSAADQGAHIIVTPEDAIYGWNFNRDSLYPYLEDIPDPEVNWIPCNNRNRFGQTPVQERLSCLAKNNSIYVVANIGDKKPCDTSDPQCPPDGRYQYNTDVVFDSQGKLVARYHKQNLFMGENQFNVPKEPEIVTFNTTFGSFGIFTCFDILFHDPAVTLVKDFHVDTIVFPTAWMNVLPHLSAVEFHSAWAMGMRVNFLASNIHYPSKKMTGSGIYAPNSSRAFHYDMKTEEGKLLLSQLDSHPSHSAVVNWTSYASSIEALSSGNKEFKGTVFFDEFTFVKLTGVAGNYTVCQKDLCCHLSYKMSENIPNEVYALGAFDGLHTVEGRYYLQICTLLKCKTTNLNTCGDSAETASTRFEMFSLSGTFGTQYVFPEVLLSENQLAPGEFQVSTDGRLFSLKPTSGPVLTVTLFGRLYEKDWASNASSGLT

Take `CN(C(=O)C1CC(F)(F)C1)[C@H]1CCN(C(=O)c2cnc3c(c2)CC(C)(C)N3)C1` [Example 2.4]: the pIC50 (commonly −log10 of the IC50, conventionally taken in molar units) in the test with Pantetheinase (vanin) was 8.55; in test [1], 9.22.

Consider `CN(c1ncccn1)[C@H]1CCN(C(=O)c2cnc3c(c2)CCC(C)(C)N3)C1` [Example 11.3], for which the pIC50 with Pantetheinase (vanin) is 8.54; in test [1] it was 9.70.

In the case of `CN(C(=O)C1CCC1)[C@H]1CCN(C(=O)c2cnc3c(c2)CC(C)(C)N3)C1` [Example 2.1, N-[(3S)-1-{2,2-Dimethyl-1H,2H,3H-pyrrolo[2,3-b]pyridine-5-carbonyl}pyrrolidin-3-yl]-N-methylcyclobutanecarboxamide], the negative-log IC50 (pIC50) in the test with Pantetheinase (vanin) is 8.60; in test [1], 9.05.

In the case of `C[C@]1(c2ccc(F)cc2)Cc2cc(C(=O)N3CC[C@H](N4CCOC4=O)C3)cnc2N1` [Example 5.2], the pIC50 was 8.82 with Pantetheinase (vanin) and 10.00 in test [1].

As to `CC1(C)CCc2cc(C(=O)N3CC4(CCOCC4)C3)cnc2N1` [Example 11.2], the negative-log IC50 (pIC50) in the test with Pantetheinase (vanin) was 8.35; in test [1], 9.52.

Take `CC(=O)N(C)[C@H]1CCN(C(=O)c2cnc3c(c2)C[C@](C)(c2cccc(F)c2)N3)C1` [Example 4.3]: the pIC50 with Pantetheinase (vanin) is 8.85; in test [1] it was 10.00.

In the case of `CC1(C)CCc2cc(C(=O)N3CC[C@H](N4CCCC4=O)C3)cnc2N1` [Example 11.8], the negative-log IC50 (pIC50) was 8.28 in the test with Pantetheinase (vanin) and 9.15 in test [1].

`CC(=O)N(C)[C@H]1CCN(C(=O)c2cnc3c(c2)CC(C)(c2ccc(Cl)cc2)N3)C1` (mixture of isomers) [Example 8.1, N-[(3S)-1-[2-(4-Chlorophenyl)-2-methyl-1H,2H,3H-pyrrolo[2,3-b]pyridine-5-carbonyl]pyrrolidin-3-yl]-N-methylacetamide]: the values for the negative logarithm of the IC50 (pIC50) (in the test on Pantetheinase (vanin); in test [1]) were 8.37 and 9.70, respectively.

In the case of `C[C@]1(c2ccc(Cl)cc2)Cc2cc(C(=O)N3CC[C@H](N4CCCC4=O)C3)cnc2N1` [Example 8.3], the pIC50 in the test with Pantetheinase (vanin) was 8.42; in test [1] it was 10.00.

For the compound `C[C@]1(c2cccc(Cl)c2)Cc2cc(C(=O)N3CC[C@H](N4CCOC4=O)C3)cnc2N1` [Example 7.4], the negative-log IC50 (pIC50) with Pantetheinase (vanin) is 8.72; in test [1] it was 10.00.

`CC1(C)Cc2cc(C(=O)N3CC[C@H](N4CCCC4=O)C3)cnc2N1` [Example 1.2]: the results for the pIC50 (in the test with Pantetheinase (vanin); in test [1]) were 7.94 and 8.82, respectively.

For `CN(C(=O)C1CC(F)(F)C1)[C@H]1CCN(C(=O)c2cnc3c(c2)CCC(C)(C)N3)C1` [Example 11.11], the negative-log IC50 (pIC50) in the test with Pantetheinase (vanin) was 8.16; in test [1] it was 9.30.

Regarding `CC(=O)N(C)[C@H]1CCN(C(=O)c2cnc3c(c2)C[C@@](C)(c2cccc(Cl)c2)N3)C1` [Example 7.3], the pIC50 in the test with Pantetheinase (vanin) was 6.37; in test [1], 7.72.

Regarding `C[C@]1(c2ccc(Cl)cc2)Cc2cc(C(=O)N3CC[C@H](N4CCOC4=O)C3)cnc2N1` [Example 8.2], the pIC50 with Pantetheinase (vanin) was 8.59; in test [1], 10.00.

As to `C[C@]1(c2ccc(F)cc2)Cc2cc(C(=O)N3CCC4(CCOCC4)C3)cnc2N1` [Example 5.1, 2-[(2R)-2-(4-Fluorophenyl)-2-methyl-1H,2H,3H-pyrrolo[2,3-b]pyridine-5-carbonyl]-8-oxa-2-azaspiro[4.5]decane], the negative logarithm of the IC50 (pIC50) in the test with Pantetheinase (vanin) is 8.44; in test [1], 9.40.

Turning to `CN(c1ncccn1)[C@H]1CCN(C(=O)c2cnc3c(c2)C[C@](C)(c2ccc(F)cc2)N3)C1` [Example 5.5], the negative-log IC50 (pIC50) with Pantetheinase (vanin) is 7.76; in test [1], 9.70.

Take `C[C@]1(c2ccc(F)cc2)Cc2cc(C(=O)N3CC4(CCOCC4)C3)cnc2N1` [Example 5.6]: the negative logarithm of the IC50 (pIC50) in the test on Pantetheinase (vanin) is 7.99; in test [1], 9.22.

As to `CN(C(=O)C1CC1)[C@H]1CCN(C(=O)c2cnc3c(c2)CCC(C)(C)N3)C1` [Example 11.9], the negative logarithm of the IC50 (pIC50) was 8.46 in the test with Pantetheinase (vanin) and 9.15 in test [1].

For `CC(=O)N(C)[C@H]1CCN(C(=O)c2cnc3c(c2)C[C@](C)(c2ccc(F)cc2)N3)C1` [Example 6, N-[(3S)-1-[(2R)-2-(4-Fluorophenyl)-2-methyl-1H,2H,3H-pyrrolo[2,3-b]lpyridine-5-carbonyl]-pyrrolidin-3-yl]-N-methylacetamide], the values for the negative-log IC50 (pIC50) (with Pantetheinase (vanin); in test [1]) were 8.72 and 9.70, respectively.

As to `CCC1(C)CCc2cc(C(=O)N3CC[C@H](N(C)C(C)=O)C3)cnc2N1` (stereo partly shown) [Example 11.12], the pIC50 with Pantetheinase (vanin) is 8.24; in test [1], 9.30.

Take `CN(C(=O)C1(C)CCC1)[C@H]1CCN(C(=O)c2cnc3c(c2)CCC(C)(C)N3)C1` [Example 11.4]: the negative logarithm of the IC50 (pIC50) in the test on Pantetheinase (vanin) is 7.94; in test [1], 9.05.

In the case of `C[C@]1(c2ccc(F)cc2)Cc2cc(C(=O)N3CC[C@H](N4CCCC4=O)C3)cnc2N1` [Example 5.3], the values for the negative logarithm of the IC50 (pIC50) (with Pantetheinase (vanin); in test [1]) were 8.82 and 10.00, respectively.

With `CC(=O)N(C)[C@H]1CCN(C(=O)c2cnc3c(c2)C[C@](C)(c2ccccc2)N3)C1` [Example 9.3], the pIC50 in the test on Pantetheinase (vanin) was 8.68; in test [1] it was 9.70.
